This note sets out measurements from ChEMBL document CHEMBL1146931, “Inhibitors of VEGF receptors-1 and -2 based on the 2-((pyridin-4-yl)ethyl)pyridine template” (Bioorg Med Chem Lett, 2006).

SMILES strings stand for the structures. A value given as a limit tells only on which side of the number the result lay.

In one series the test system is Caco-2. Description: Intrinsic permeability in Caco-2 cells. To be noted: human.
For series [1], the target named is Vascular endothelial growth factor receptor 1 (Homo sapiens, UniProt P17948).
Description: Inhibition of VEGFR1 phosphorylation in presence of 2 uM ATP by HTRF assay
Series [2] concerns the target T1, Vascular endothelial growth factor receptor 2 (Homo sapiens, UniProt P35968). Nature of the series: Inhibition of VEGFR2 phosphorylation in HEK293 cells by cell-based ELISA.
The target in series [3] is T1, Vascular endothelial growth factor receptor 2.
Description: Inhibition of VEGFR2 phosphorylation in presence of 2 uM ATP by HTRF assay
Series [4] has the same target. Nature of the series: Binding affinity to VEGFR2 at 0.043 uM.
For series [5] the target is unchanged. Nature of the series: Binding affinity to VEGFR2 at 0.031 uM.
The target is the same in series [6]. Description: Binding affinity to VEGFR2 at 0.058 uM.

T1 sequence (P35968 whole entry): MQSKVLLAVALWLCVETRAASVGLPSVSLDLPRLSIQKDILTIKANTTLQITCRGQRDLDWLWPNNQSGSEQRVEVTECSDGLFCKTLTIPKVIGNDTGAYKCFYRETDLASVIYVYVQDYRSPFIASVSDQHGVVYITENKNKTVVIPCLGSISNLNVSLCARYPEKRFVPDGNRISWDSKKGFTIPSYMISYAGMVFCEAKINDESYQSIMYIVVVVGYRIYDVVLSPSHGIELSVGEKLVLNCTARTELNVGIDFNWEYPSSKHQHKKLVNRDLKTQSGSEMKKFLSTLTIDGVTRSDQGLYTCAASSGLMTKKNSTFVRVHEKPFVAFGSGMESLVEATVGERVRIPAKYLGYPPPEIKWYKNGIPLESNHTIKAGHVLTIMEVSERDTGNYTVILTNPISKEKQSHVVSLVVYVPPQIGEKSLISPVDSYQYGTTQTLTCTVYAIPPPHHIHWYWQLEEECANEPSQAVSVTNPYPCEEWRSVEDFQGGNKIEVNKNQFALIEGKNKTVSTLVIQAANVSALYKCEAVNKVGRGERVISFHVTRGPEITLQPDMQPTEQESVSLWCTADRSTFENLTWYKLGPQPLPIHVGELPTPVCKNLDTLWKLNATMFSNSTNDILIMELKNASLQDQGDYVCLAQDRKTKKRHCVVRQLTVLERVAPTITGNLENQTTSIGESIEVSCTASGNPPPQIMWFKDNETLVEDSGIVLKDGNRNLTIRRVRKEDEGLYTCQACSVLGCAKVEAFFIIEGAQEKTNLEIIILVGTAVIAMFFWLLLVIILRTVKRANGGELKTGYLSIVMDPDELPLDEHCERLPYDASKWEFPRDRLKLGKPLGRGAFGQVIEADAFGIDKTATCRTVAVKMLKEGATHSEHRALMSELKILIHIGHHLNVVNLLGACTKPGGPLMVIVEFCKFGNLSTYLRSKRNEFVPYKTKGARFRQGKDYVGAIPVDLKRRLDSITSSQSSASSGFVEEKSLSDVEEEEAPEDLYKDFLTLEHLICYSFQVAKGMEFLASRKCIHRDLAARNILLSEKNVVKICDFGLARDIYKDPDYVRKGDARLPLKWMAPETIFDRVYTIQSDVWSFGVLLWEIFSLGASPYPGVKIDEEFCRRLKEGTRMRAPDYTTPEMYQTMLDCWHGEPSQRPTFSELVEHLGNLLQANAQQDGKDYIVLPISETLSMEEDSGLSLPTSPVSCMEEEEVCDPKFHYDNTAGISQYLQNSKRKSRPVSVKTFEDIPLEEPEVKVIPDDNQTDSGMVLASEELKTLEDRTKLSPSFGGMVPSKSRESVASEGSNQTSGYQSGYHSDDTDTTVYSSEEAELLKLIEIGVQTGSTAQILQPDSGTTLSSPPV
Vascular endothelial growth factor receptor 1, sequence (P17948 whole entry): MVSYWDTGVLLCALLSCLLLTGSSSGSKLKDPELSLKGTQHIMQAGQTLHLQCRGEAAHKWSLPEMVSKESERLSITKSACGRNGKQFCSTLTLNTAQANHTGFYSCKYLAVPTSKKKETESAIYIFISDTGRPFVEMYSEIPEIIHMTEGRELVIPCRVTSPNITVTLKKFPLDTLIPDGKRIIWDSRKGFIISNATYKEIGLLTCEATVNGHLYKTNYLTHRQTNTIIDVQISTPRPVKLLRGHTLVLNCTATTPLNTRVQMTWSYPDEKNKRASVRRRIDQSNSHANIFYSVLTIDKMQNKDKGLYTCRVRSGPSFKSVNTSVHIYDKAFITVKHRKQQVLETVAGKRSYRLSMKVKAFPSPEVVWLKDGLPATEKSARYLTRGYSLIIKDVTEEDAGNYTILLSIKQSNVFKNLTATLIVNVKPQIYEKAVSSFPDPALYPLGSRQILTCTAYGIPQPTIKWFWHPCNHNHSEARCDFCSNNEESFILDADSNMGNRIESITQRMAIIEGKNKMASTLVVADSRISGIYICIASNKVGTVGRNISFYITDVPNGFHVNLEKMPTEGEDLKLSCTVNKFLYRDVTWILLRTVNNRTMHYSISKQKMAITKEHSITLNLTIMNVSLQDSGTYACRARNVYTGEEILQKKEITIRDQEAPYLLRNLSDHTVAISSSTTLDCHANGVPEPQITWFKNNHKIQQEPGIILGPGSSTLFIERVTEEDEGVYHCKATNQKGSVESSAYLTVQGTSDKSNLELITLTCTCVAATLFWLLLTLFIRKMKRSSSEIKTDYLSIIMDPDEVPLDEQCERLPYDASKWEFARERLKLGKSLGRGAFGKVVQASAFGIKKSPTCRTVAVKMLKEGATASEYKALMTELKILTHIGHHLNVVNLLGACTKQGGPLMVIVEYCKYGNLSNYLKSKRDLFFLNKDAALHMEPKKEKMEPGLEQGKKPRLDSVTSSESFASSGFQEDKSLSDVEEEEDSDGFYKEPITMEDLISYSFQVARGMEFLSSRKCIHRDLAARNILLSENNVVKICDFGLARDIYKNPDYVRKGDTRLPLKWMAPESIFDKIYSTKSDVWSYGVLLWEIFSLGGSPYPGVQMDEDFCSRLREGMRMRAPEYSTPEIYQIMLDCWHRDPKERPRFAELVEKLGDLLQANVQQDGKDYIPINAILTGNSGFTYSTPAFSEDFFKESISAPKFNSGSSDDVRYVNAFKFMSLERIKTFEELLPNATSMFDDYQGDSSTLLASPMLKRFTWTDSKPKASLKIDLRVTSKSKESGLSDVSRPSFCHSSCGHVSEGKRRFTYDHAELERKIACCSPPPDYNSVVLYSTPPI

With `O=C(Nc1cnc2ccccc2c1)c1ccccc1NCc1ccncc1`, the Pm with Caco-2 was 17.3 10^-5 cm/min.
In general, IC50 refers to the point on the concentration scale where inhibition reaches its midpoint. As to `Cc1cccc(Nc2nnc(-c3cccnc3CCc3ccncc3)o2)c1`, the IC50 stood at 1070 nM in series [1], 2140 nM in series [2] (read-out: IC50) and 770 nM in series [3].
With `Clc1ccc(Nc2nnc(-c3cccnc3CCc3ccncc3)o2)cc1Cl`, the IC50 in series [1] stood at 270 nM; in series [2] (read-out: IC50), 94 nM; in series [3], 79 nM.
Regarding `CC(C)(C)c1ccc(Nc2nnc(-c3cc4ccccc4nc3CCc3ccncc3)o2)cc1`, the IC50 in series [1] and in series [3] was > 10000 nM in each case.
Take `CC(C)(C)c1ccc(Nc2nnc(-c3ccncc3CCc3ccncc3)o2)cc1`: the IC50 came to 220 nM in series [1], 320 nM in series [2] (read-out: IC50) and 190 nM in series [3].
For `COc1cccc(Nc2nnc(-c3cccnc3CCc3ccncc3)o2)c1`, the IC50 was 500 nM in series [1], 290 nM in series [2] (read-out: IC50) and 170 nM in series [3].
Consider `FC(F)(F)c1ccc(Nc2nnc(-c3cnccc3CCc3ccncc3)o2)cc1`, for which the IC50 in series [1] was 670 nM; in series [2] (read-out: IC50), 740 nM; in series [3] it was 440 nM.
Usually Ki stands for a measure of affinity in units of concentration, obtained from inhibition or displacement. Low readings indicate tighter binding, high ones weaker binding. For `CC(C)(C)c1ccc(Nc2nnc(-c3cccnc3CCc3ccncc3)o2)cc1`, the values for the IC50 in series [1], in series [2] (read-out: IC50) and in series [3] were 770 nM, 63 nM and 43 nM, respectively. The compound further had a Ki in series [4] of 130 nM.
As for `FC(F)(F)c1cccc(Nc2nnc(-c3cnccc3CCc3ccncc3)o2)c1`, the IC50 is 1220 nM in series [1], 2540 nM in series [2] (read-out: IC50) and 720 nM in series [3].
For `FC(F)(Cl)Oc1ccc(Nc2nnc(-c3cccnc3CCc3ccncc3)o2)cc1`, the IC50 in series [1] came out at 730 nM; in series [2] (read-out: IC50) it was 44 nM; in series [3], 31 nM. This compound came in with a Ki in series [5] of 100 nM.
With `FC(F)(Cl)Oc1ccc(Nc2nnc(-c3ccncc3CCc3ccncc3)o2)cc1`, the IC50 in series [1] is 810 nM; in series [2] (read-out: IC50), 530 nM; in series [3] it was 220 nM.
Regarding `FC(F)(F)Oc1cccc(Nc2nnc(-c3ccncc3CCc3ccncc3)o2)c1`, the results for the IC50 in series [1], in series [2] (read-out: IC50) and in series [3] were 710 nM, 860 nM and 470 nM, respectively.
Consider `FC(F)(F)c1cccc(Nc2nnc(-c3cccnc3CCc3cccc4ncccc34)o2)c1`, for which the IC50 is > 10000 nM in series [1], > 10000 nM in series [2] (read-out: IC50) and 5640 nM in series [3].
In the case of `Cc1ccccc1Nc1nnc(-c2cccnc2CCc2ccncc2)o1`, the IC50 in series [1] and in series [3] was > 10000 nM each time.
As to `FC(F)(F)c1cccc(Nc2nnc(-c3cc4ccccc4nc3CCc3ccncc3)o2)c1`, the IC50 in series [1], in series [2] (read-out: IC50) and in series [3] was > 10000 nM in each case.
Turning to `FC(F)(F)c1cccc(Nc2nnc(-c3cccnc3CCc3ccc4ccccc4n3)o2)c1`, the IC50 in series [1], in series [2] (read-out: IC50) and in series [3] was > 10000 nM each time.
Take `FC(F)(F)Oc1cccc(Nc2nnc(-c3cccnc3CCc3ccncc3)o2)c1`: in the series on Caco-2, the Pm is on record as 42.6 10^-5 cm/min. Also, the results for the IC50 in series [1], in series [2] (read-out: IC50) and in series [3] were 260 nM, 110 nM and 69 nM, respectively.
For the compound `c1cnc(CCc2ccncc2)c(-c2nnc(Nc3cnc4ccccc4c3)o2)c1`, the IC50 in series [1] was 440 nM; in series [2] (hek293) it was “Not Active”; in series [3], 380 nM.
As for `c1ccc2ncc(Nc3nnc(-c4cc5ccccc5nc4CCc4ccncc4)o3)cc2c1`, the IC50 in series [1] and in series [3] was > 10000 nM in each case.
Consider `Fc1ccc(CCc2ncccc2-c2nnc(Nc3cccc(C(F)(F)F)c3)o2)cc1F`, for which the IC50 in series [1], in series [2] (read-out: IC50) and in series [3] was > 10000 nM each time.
Turning to `FC(F)(F)Oc1ccc(Nc2nnc(-c3cnccc3CCc3ccncc3)o2)cc1`, the IC50 is 470 nM in series [1], 510 nM in series [2] (read-out: IC50) and 360 nM in series [3].
As for `FC(F)(F)c1cccc(Nc2nnc(-c3cccnc3CCc3ccccn3)o2)c1`, the IC50 in series [1], in series [2] (read-out: IC50) and in series [3] was > 10000 nM throughout.
Take `CC(C)c1ccc(Nc2nnc(-c3ccncc3CCc3ccncc3)o2)cc1`: the figures for the IC50 in series [1], in series [2] (read-out: IC50) and in series [3] were 270 nM, 390 nM and 250 nM, respectively.
With `c1ccc(-c2ccc(Nc3nnc(-c4cccnc4CCc4ccncc4)o3)cc2)cc1`, the IC50 was > 10000 nM in series [1] and 2630 nM in series [3].
As to `FC(F)(F)c1ccc(Nc2nnc(-c3ccncc3CCc3ccncc3)o2)cc1`, the IC50 in series [1] is 840 nM; in series [2] (read-out: IC50) it was 720 nM; in series [3], 290 nM.
For `CC(C)c1ccc(Nc2nnc(-c3cccnc3CCc3ccncc3)o2)cc1`, the IC50 in series [1] stood at 620 nM; in series [2] (read-out: IC50), 75 nM; in series [3] it was 51 nM.
Consider `FC(F)(F)c1cccc(Nc2nnc(-c3cccnc3CCc3cccnc3)o2)c1`, for which the IC50 in series [1], in series [2] (read-out: IC50) and in series [3] was > 10000 nM throughout.
As for `FC(F)(F)Oc1ccc(Nc2nnc(-c3cccnc3CCc3ccncc3)o2)cc1`, the figures for the IC50 in series [1], in series [2] (read-out: IC50) and in series [3] were 560 nM, 51 nM and 44 nM, respectively.
As to `FC(F)(F)c1ccc(Nc2nnc(-c3cccnc3CCc3ccncc3)o2)cc1`, affinity in series [6] was put at a Ki of 120 nM. For the same compound, the IC50 in series [1] is 320 nM; in series [2] (read-out: IC50), 76 nM; in series [3] it was 58 nM.
Take `FC(F)(F)Oc1cccc(Nc2nnc(-c3cnccc3CCc3ccncc3)o2)c1`: the IC50 in series [1] came out at 740 nM; in series [2] (read-out: IC50), 760 nM; in series [3], 550 nM.
With `FC(F)(F)c1cccc(Nc2nnc(-c3ccncc3CCc3ccncc3)o2)c1`, the figures for the IC50 in series [1], in series [2] (read-out: IC50) and in series [3] were 760 nM, 1110 nM and 560 nM, respectively.
`FC(F)(Cl)Oc1ccc(Nc2nnc(-c3cnccc3CCc3ccncc3)o2)cc1`: the figures for the IC50 in series [1], in series [2] (read-out: IC50) and in series [3] were 530 nM, 590 nM and 440 nM, respectively.
Regarding `Cc1ccc(Nc2nnc(-c3cccnc3CCc3ccncc3)o2)cc1C(F)(F)F`, the figures for the IC50 in series [1], in series [2] (read-out: IC50) and in series [3] were 120 nM, 92 nM and 87 nM, respectively.
Regarding `COc1ccc(Nc2nnc(-c3cccnc3CCc3ccncc3)o2)cc1OC`, the IC50 came to 180 nM in series [1], 110 nM in series [2] (read-out: IC50) and 67 nM in series [3].
Take `FC(F)(F)c1cccc(Nc2nnc(-c3cccnc3CCc3ccc4[nH]ncc4c3)o2)c1`: the IC50 in series [1] was > 10000 nM; in series [2] (read-out: IC50) it was > 10000 nM; in series [3] it was 3870 nM.
As for `c1cnc(CCc2ccncc2)c(-c2nnc(NCc3ccc4c(c3)OCO4)o2)c1`, the Pm with Caco-2 is listed as 23.6 10^-5 cm/min. Also, the IC50 in series [1] is 140 nM; in series [2] (read-out: IC50) it was 290 nM; in series [3], 85 nM.
Regarding `CC(C)(C)c1ccc(Nc2nnc(-c3cnccc3CCc3ccncc3)o2)cc1`, the values for the half-inhibitory concentration (IC50) in series [1], in series [2] (read-out: IC50) and in series [3] were 480 nM, 520 nM and 310 nM, respectively.
Take `FC(F)(F)c1cccc(Nc2nnc(-c3cccnc3CCc3ccncc3)o2)c1`: the IC50 in series [1] stood at 220 nM; in series [2] (read-out: IC50), 110 nM; in series [3] it was 64 nM.
As for `FC(F)(F)Oc1ccc(Nc2nnc(-c3ccncc3CCc3ccncc3)o2)cc1`, the IC50 in series [1] worked out at 930 nM; in series [2] (read-out: IC50) it was 660 nM; in series [3], 350 nM.
